Measured values from patent US8106111B2, “Antimicrobial effect of cycloaliphatic diol antimicrobial agents in coating compositions” (Eastman Chemical Company, priority 2009, dated 2012).

Columns and labels:
[1] = test system: challenge organisms (E. coli, Aeromonas sp., SRB isolate, B. subtilis, P. vulgaris, A. niger, C. albicans); experiment: Paint challenge test, summary over the challenge organisms; assay type: cell-based; settings: additive alone at 0.5-5%, all seven challenge organisms
Protocol: A test of the antimicrobial efficacy of 1,4-CHDM was performed in a paint. Test procedures were generally performed according to those of ASTM D2574-06: Standard Test Method for Resistance of Emulsion Paints in the Container to Attack by Microorganisms.
The paint used for testing was a commercial water-based, interior latex flat wall paint purchased from Wal-Mart. The trade name for the paint was Quik Hide. The color was Off White 26905. A five gallon (18.9 L) container was purchased. The VOC (volatile organic compound) content was listed as <100 g/L (0.8 lbs/gal).
Aliquots of uninoculated paint were distributed in sterile plastic tubes. The volume of paint added was adjusted such that the volume of additives plus the volume of paint would equal 25 mL. […] The percentages shown in Table 2 are weight percentages.
(§1) The concentration of the additives in the paint was adjusted to allow for a final volume of 28 mL per tube after addition of inoculum. All tubes were mixed for 10 minutes on a mechanical shaker set to 75 shakes per minute, and then left stationary at ambient temperature for a minimum of 48 hours.
The bacteria (first five in list), yeast (C. albicans) and fungi (A. niger) in Table 3 were used as challenge organisms for testing the antimicrobial efficacy of the additives contained in the test paint samples. Each organism was isolated from previous naturally contaminated samples of paint, latex, or adhesive. The concentration of each organism (colony-forming unit/gram (cfu/g)) in the test paint samples added as inoculum is also given in Table 3.
(§2) Bacterial cultures were grown at 35° C.±2° C. for a minimum of 96 hours in liquid media. SRB was grown in a thioglycolate broth. All other bacteria and C. albicans were grown in a Trypticase Soy broth with 1% dextrose. C. albicans cultures were grown at 22° C.±2° C. for a minimum of 96 hours. A. niger was grown on the Sabouraud Dextrose Agar (SDA) and in the Trypticase Soy broth with 1% dextrose at 22° C. for 7 to 14 days or until full sporulation (in the case of the agar culture) was achieved. Spores from the plate culture of A. niger were dislodged by rubbing the growth gently with a sterile inoculating loop or removing it with a sterile glass impinger. The spores were added into the broth culture, and then the mixture was filtered through sterile nonabsorbent cotton and adjusted to a spore level of 1.0×10^8 using a hemocytometer.
Challenge organisms were initially acclimated to the paint without additives by adding 10% by volume of individual broth culture to the paint to yield final concentrations of 10^6-10^7 cfu/mL for each bacterial culture to produce paint stock cultures. The A. niger and C. albicans cultures (or suspension) were first poured through nonabsorbent sterile gauze to remove aggregates, then centrifuged. […]

[2] = test system: challenge organisms (SRB isolate, B. subtilis, A. niger, C. albicans, P. aeruginosa/C. albicans); experiment: Latex dispersion challenge test, summary over the challenge organisms; assay type: cell-based; settings: acrylic latex dispersion, additive alone; challenge organisms other than SRB
Protocol: A test of the antimicrobial efficacy of 1,4-CHDM was performed in a latex dispersion. Test procedures were generally conducted according to those of ASTM D2574-06: Standard Test Method for Resistance of Emulsion Latexes in the Container to Attack by Microorganisms.
An antimicrobial agent-free, acrylic latex dispersion with pH of 7.2, viscosity of 200 cps, and solids content of 49.8% was used as the substrate for microbial challenge testing.
Aliquots of the latex dispersion were distributed in sterile plastic tubes. The volume of latex added was adjusted such that the volume of additives plus the volume of latex would equal 25 mL to produce latex test samples.
as §1, with “additives” for “additives in the paint”, “the latex stock cultures discussed in Example 1.” for “inoculum.”
The bacteria (sulfate-reducing bacteria isolate, Bacillus subtilis, and Pseudomonas aeruginosa), yeast (Candida albicans), and fungi (Aspergillus niger) in Table 6 were used as challenge organisms for testing the antimicrobial efficacy of the test latex samples. Each organism was isolated from previous naturally contaminated samples of paint, latex, or adhesive.
as §2, with “Agar” for “Agar (SDA)”
Challenge organisms were initially acclimated to the latex without antimicrobial additives by adding 10% by volume of individual broth culture to latex to yield final concentrations of 10^6-10^7 cfu/mL for each bacterial culture to produce latex stock cultures. The A. niger and C. albicans cultures (or suspension) were first poured through nonabsorbent sterile gauze to remove aggregates then centrifuged. The solids were re-suspended to the desired concentration in latex by estimating the concentration using a hemocytometer. The P. aeruginosa and C. albicans isolates were originally found as a mixed culture in a contaminated product. A mixed latex stock culture containing P. aeruginosa and C. albicans was prepared by adding a portion of the contaminated product to the latex without antimicrobial additives. The latex stock culture samples were incubated at 35° C.±2° C. for bacteria and at 22° C.±2° C. for A. niger and C. albicans. To determine challenge organism concentration, samples of the latex stock cultures were dilution-plated, or for SRB, evaluated using the BACTI-BOTTLE method, as described below.
To the latex test samples, 3 mL of each latex stock culture (diluted as necessary) was added to produce a theoretical 1.0×10^5 to 1.0×10^6 cfu/mL total concentration to yield inoculated latex samples. […]

[3] = Solubility in aqueous growth media; assay type: physicochemical
Protocol: Stock solutions were prepared for each isomer in the corresponding growth media at a concentration of 5% w/v (1,4-CHDM) or 2.25% w/v (1,1-CHDM). Serial dilutions were prepared with a dilution ratio of 1:1.3333 such that one log range was covered with nine dilutions.
Final results have been summarized below in Table 9.

solubility [3] | SMILES | killing of challenge organisms in paint [1] | efficacy against challenge organisms in latex [2]
 | CC1(C)C(O)C(C)(C)C1O (stereo not shown) [TMCD, 2,2,4,4-tetramethyl-1,3-cyclobutanediol] | killed all challenge organisms at the highest level tested | 
 | CCCCNC(=O)OCC#CI [IPBC, 3-iodo-2-propanyl-n-butylcarbamate] |  | not found to be efficacious
 | CC(O)CO (stereo not shown) [PG, propylene glycol] | little benefit and no observable dose response | some ability to inhibit and kill the challenge organisms
2.25 % (w/v) | OCC1(CO)CCCCC1 [1,1-CHDM, 1,1-cyclohexanedimethanol] |  | 
 | OCC1CCC(CO)CC1 (stereo not shown) [1,4-CHDM, 1,4-cyclohexanedimethanol] | significant or complete killing of each challenge organism | significant or complete killing of each challenge organism except SRB
 | OCC1CCCC(CO)C1 (stereo not shown) [1,3-CHDM] | little benefit and no observable dose response | 
 | O=c1[nH]sc2ccccc12 [BIT, benzisothiazolinone] |  | highly efficacious
 | Cn1sccc1=O [MIT, methylisothiazolinone] |  | highly efficacious
